Experiments:
[1] = biological target: human PAI-1 (Homo sapiens, UniProt P05121); experiment: Measurement of PAI-1 inhibitory activity of compound group 1 (t-PA, Spectrozyme t-PA chromogenic substrate); settings: read-out: PAI-1 activity %
Description: Subsequently, human-derived tissue plasminogen activator (t-PA) (manufactured by American Diagnostica, Inc. (USA); the same applies hereinafter) adjusted to 0.05 pmol/μL was added thereto, and the mixture was further incubated at 37° C. for 60 minutes. Then, 0.25 mM of Spectrozyme t-PA synthetic substrate (manufactured by American Diagnostica, Inc. (USA); the same applies hereinafter), which is a chromogenic substrate, was added. The final mixture contained 50 mM Tris-HCl (pH 8), 150 mM NaCl, 1% DMSO, 0.1% PEG-6000, 0.2 mM CHAPS, 5 nM PAI-1, 2 nM t-PA, 0.2 mM Spectrozyme t-PA synthetic substrate, and each compound (10 μM or 2.5 μM).
Free radical p-nitroaniline removed from the chromogenic substrate (Spectrozyme t-PA) by t-PA action was measured using a spectrophotometer at an absorbance of 405 nm at 20-minute intervals, for 120 minutes.

[2] = system: hematopoietic stem cells; experiment: Bone-marrow transplanted mice, compound c, G-CSF and G-CSF neutralizing antibody (Experimental Example 13); type: in vivo; settings: for G-CSF concentration in the plasma and bone-marrow fluids: 1 week after transplantation
Description: Bone-marrow transplanted mice were prepared in the same manner as in Experimental Example 4, and compound c, G-CSF, and G-CSF neutralizing antibody were examined for the effects. Specifically, the bone-marrow transplanted mice were divided into 5 groups as shown below (each group: n=5) and orally administered respective test drugs.
Group 1: vehicle group (physiological saline was administered via gavage) (“v group”)
Group 2: compound c group (compound c [10 mg/kg/day] was administered via gavage) (“TM group”)
Group 3: G-CSF group (G-CSF [150 μg/kg/day] was administered via gavage) (“G group”)
Group 4: vehicle+anti-G-CSF group (physiological saline+G-CSF neutralizing antibody [500 μg/kg/day] was administered via gavage) (“v+Ab group”)
Group 5: compound c+anti-G-CSF group (compound c [500 μg/kg/day]+G-CSF neutralizing antibody [500 μg/kg/day] was administered via gavage) (“TM+Ab group”)
Concurrently with bone-marrow transplantation, administration of physiological saline (vehicle) to the vehicle group via gavage was started, and the administration continued for 5 consecutive days. Concurrently with bone-marrow transplantation, administration of compound c (10 mg/kg/day) to the compound c group via gavage was started, and the administration continued for 5 consecutive days. Concurrently with bone-marrow transplantation, subcutaneous administration of G-CSF (150 μg/kg/day) to the G-CSF group was started, and the administration continued for 5 consecutive days. Concurrently with bone-marrow transplantation, gavage administration of physiological saline and subcutaneous administration of G-CSF neutralizing antibody (R&D) (500 μg/kg/day) to the vehicle+anti-G-CSF group were started, and the administration continued for 5 consecutive days. Concurrently with bone-marrow transplantation, gavage administration of compound c (10 mg/kg/day) and intraperitoneal administration of G-CSF neutralizing antibody (R&D) (500 μg/kg/day) to the compound c+anti-G-CSF group were started, and the administration continued for 5 consecutive days.
1 week after bone-marrow transplantation, plasma and bone-marrow fluids were collected from mice of each group (v group, TM group, G group, v+Ab group, and TM+Ab group), and the G-CSF concentration (pg/ml) was measured by ELISA. The following were determined in accordance with an ordinary procedure: (B) G-CSF concentration (pg/ml) in bone-marrow fluids, (C) total number of mononucleic cells (×10E7 cell) in the bone marrow, (D) proportion (%) of LSK CD34 negative cells in the bone marrow, (E) total number of LSK CD34 negative cells in the bone marrow, (F) proportion (%) of Lin-SLAM cells in the bone marrow, and (G) total number of Lin-SLAM cells in the bone marrow.

[3] = 2-week repeated-dose toxicity test using rat (Experimental Example 6); type: in vivo, Sprague-Dawley rats; settings: 200, 600 and 2,000 mg/kg/day oral, repeatedly for 2 weeks; male and female rats
Description: Compound a was orally administered in 0 (0.5 w/v % carmellose sodium solution), 200, 600 and 2,000 mg/kg/day dosages to a male rat group and a female rat group each containing 5 Sprague-Dawley rats (Crl:CD(SD), 6-week old at the onset of administration) repeatedly for 2 weeks, and a toxicity test was conducted.

[4] = system: long-term hematopoietic stem cells; experiment: Long-term hematopoietic stem cells: 15 weeks after transplantation, successive transplantation, limiting dilution (Experimental Example 10); type: in vivo, mice
Description: 15 weeks after bone-marrow transplantation, the control group, tPA group, and compound a-administered group (12 mice for each group) were measured for the number of bone-marrow mononucleic cells (BM MNC), frequency and absolute number of Lin-SLAM cells, and frequency of and absolute number LSK-CD34 negative cells.
15 weeks after the initial bone-marrow transplantation, bone marrow was collected from mice of the control group, tPA group, and compound a-administered group, and the collected bone marrow was transplanted into other mice (successive transplantation). In the successive transplantation, none of physiological saline, tPA, or compound a was administered.
12 weeks after successive transplantation, the chimerism of donor-derived bone marrow hematopoietic cells was measured.
To compare the frequency of long-term hematopoietic stem cell, donor-derived bone marrow to be transplanted first was diluted and transplanted, and the effect of PAI-1 inhibition was evaluated by a limiting dilution technique.
The collected bone-marrow mononucleic cells were diluted such that Ly5.1 positive bone-marrow mononucleic cell count gave 2×10E3, 6×10E3, 2×10E4, and 6×10E4, and then Ly5.1 positive bone-marrow mononucleic cells of each count were transplanted, together with 5×10E5 Ly5.2 positive competitor cells, into 20 mice. For transplantation, mice were divided into 2 groups, i.e., a compound a-administered group to which compound a was to be administered and a control group to which physiological saline was to be administered (8 groups in total), and the chimerism (the positive rate of Ly5.1 positive bone-marrow mononucleic cells) was measured 12 weeks after the transplantation.
Further, bone marrow was collected from the control groups and the compound a-administered groups to both of which Ly5.1 positive bone-marrow mononucleic cells of the above-described numbers were transplanted, and the collected bone marrow was successively transplanted into other mice. At the time successive transplantation was conducted, neither physiological saline nor the compound was administered. 12 weeks after the successive transplantation, bone marrow was collected from the mice, and Ly5.1 positive cells in the bone-marrow mononucleic cells were measured.
After successive transplantation, the frequency (CRU frequency) of hematopoietic stem cells having the hematopoietic regeneration capacity was calculated.

[5] = compound c + G-CSF neutralizing antibody 500 μg/kg/day

human PAI-1, sequence (P05121 24-402): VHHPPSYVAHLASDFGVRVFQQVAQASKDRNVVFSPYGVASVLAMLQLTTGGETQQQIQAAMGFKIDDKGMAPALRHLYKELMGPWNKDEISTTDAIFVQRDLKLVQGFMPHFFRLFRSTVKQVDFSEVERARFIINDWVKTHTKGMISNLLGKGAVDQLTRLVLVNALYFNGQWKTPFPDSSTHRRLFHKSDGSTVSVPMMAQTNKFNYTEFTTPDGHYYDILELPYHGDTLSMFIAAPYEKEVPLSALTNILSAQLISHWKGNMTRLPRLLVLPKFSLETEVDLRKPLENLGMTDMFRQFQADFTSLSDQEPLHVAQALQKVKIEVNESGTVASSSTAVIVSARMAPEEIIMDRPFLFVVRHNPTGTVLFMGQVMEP

Compound | activity at 2.5 µM [1] [%] | activity at 10 µM [1] [%] | number of BM MNC [2, 5] | proportion and number of LSK-CD34 negative cells [2, 5] | G-CSF concentration in the plasma and bone-marrow fluids [2, 5] | G-CSF concentration in the plasma and bone-marrow fluids ([2]; single agents: compound c 10 mg/kg/day gavage, G-CSF 150 μg/kg/day, G-CSF neutralizing antibody 500 μg/kg/day with vehicle, versus vehicle) | proportion and number of LSK CD34 negative cells ([2]; single agents: compound c 10 mg/kg/day, G-CSF 150 μg/kg/day, G-CSF neutralizing antibody 500 μg/kg/day with vehicle, versus vehicle group) | number of BM MNC ([2]; single agents: compound c 10 mg/kg/day, G-CSF 150 μg/kg/day, versus vehicle group) | change in general state, weight, food intake, urine test, hematological test, blood chemical test, pathological test [3] | chimerism of donor-derived bone marrow hematopoietic cells ([4]; 12 weeks after successive transplantation, compound given only at first transplantation) | number of bone-marrow mononucleic cells, frequency and absolute number of LSK-CD34 negative cells and of Lin-SLAM cells ([4]; 15 weeks after bone-marrow transplantation, among control, tPA and compound a groups) | frequency of hematopoietic stem cells having the hematopoietic regeneration capacity, versus control ([4]; after successive transplantation) [time higher] | chimerism (positive rate of Ly5.1 positive bone-marrow mononucleic cells) ([4]; limiting dilution 2×10E3 to 6×10E4 cells, 12 weeks after transplantation)
O=C(Nc1ccc(Cl)cc1C(=O)O)c1cccc(-c2ccccc2)c1 [Example 4, 2-[(biphenyl-3-ylcarbonyl)amino]-5-chlorobenzoic acid] | 62.1 | 0.6 | did not exhibit a decrease | not decreased | an increase in G-CSF in neither plasma nor bone-marrow fluids | significant increases | increased | more increased |  |  |  |  | 
O=C(COCC(=O)N1CCN(C(c2ccccc2)c2ccccc2)CC1)Nc1ccc(Cl)cc1C(=O)[O-].[Na+] [Example 30 (compound group 2), 2-(2-(2-(4-benzhydrylpiperazin-1-yl)-2-oxoethoxy)acetamido)-5-chlorobenzoic acid sodium salt] |  |  |  |  |  |  |  |  | no obvious change | marked increase | highest values | ≥ 6 | significant increases

Reference: patent US10092537B2, “Use for PAI-1 inhibitor” (RENASCIENCE CO., LTD., priority 2013, dated 2018)
